# Test results published in US10919891B2, “Heterocyclic compound” (TAKEDA PHARMACEUTICAL COMPANY LIMITED, priority 2017, dated 2021).
# Tests used:
# CYP3A = test: CYP Induction (CYP3A activity in cryopreserved hepatocytes, P450-Glo CYP3A4 assay); type: in vitro ADME; details: % of positive control (inducibility by 10 μmol/L rifampicin = 100%); hepatocytes treated 3 days
# Protocol: Cryopreserved hepatocytes were thawed in a culture medium (In VitroGRO™ CP Medium, Celsis In Vitro Technologies, U.S.A.), and the resultant was added to BioCoat™ Matrigel® Matrix Thin-Layer 96 well (Becton, Dickinson and Company, U.S.A.) at a concentration of 40,000 cells/well. After culturing for 24 hours, the culture medium was removed, and replaced with an incubation medium (In VitroGRO™, HI Medium with Torpedo Antibiotic Mix, Celsis In Vitro Technologies, U.S.A.). Cells were cultured for an additional 3 days. The medium was removed on day 4, and the remained cells were treated in the induction medium containing a test compound for 3 days in the presence or absence of 10 μmol/L rifampicin. The induction medium was replaced every day. The test compound addition wells in the presence of 10 μmol/L rifampicin were used to evaluate the inhibitory effect of the test compound on the inducibility of the CYP3A activity by rifampicin. The CYP3A activity was evaluated by measuring luciferin generating amount after the addition of 2 μmol/L luciferin-IPA using IPA P450-Glo™ CYP3A4 assay systems (Promega Corporation, U.S.A.). All cultures were carried out under a humidified environment at 37° C., 5% CO2. The inducibility by rifampicin was defines as 100%, and the inducibility of the test compound (% of positive control) was calculated from the following equation: [(luciferin fluorescence intensity in the absence of rifampicin and the presence of test compound)−(luciferin fluorescence intensity in the absence of rifampicin and test compound)/(luciferin fluorescence intensity in the presence of rifampicin and the absence of test compound)−(Luciferin fluorescence intensity in the absence of rifampicin and test compound)]×100.
# CYP3A4 = target: T1, CYP3A4 (Homo sapiens, UniProt P08684); test: CYP3A4 TDI (human liver microsomes, testosterone 6β-hydroxylation); type: in vitro ADME; details: test compound 30 μM, 60 min vs 0 min preincubation with NADPH, 37° C.
# T1 construct: Human liver microsomes purchased from XenoTech, LLC (Lenexa, Kans.) was used; tissue XenoTech, LLC; host or cells: human liver microsomes
# T1 sequence (P08684 whole entry): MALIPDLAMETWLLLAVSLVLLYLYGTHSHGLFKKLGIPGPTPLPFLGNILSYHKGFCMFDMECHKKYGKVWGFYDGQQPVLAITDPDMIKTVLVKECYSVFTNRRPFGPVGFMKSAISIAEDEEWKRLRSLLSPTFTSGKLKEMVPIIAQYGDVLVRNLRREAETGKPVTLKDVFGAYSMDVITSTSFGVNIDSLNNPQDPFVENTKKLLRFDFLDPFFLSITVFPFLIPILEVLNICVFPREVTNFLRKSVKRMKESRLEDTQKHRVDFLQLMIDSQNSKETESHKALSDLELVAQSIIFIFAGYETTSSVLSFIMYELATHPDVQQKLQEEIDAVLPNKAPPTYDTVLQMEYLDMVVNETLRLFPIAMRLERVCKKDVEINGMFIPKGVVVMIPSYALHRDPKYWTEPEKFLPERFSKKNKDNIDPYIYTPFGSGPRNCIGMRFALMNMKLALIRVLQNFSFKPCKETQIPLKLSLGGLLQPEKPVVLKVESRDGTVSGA
# Protocol: Human liver microsomes purchased from XenoTech, LLC (Lenexa, Kans.) was used. Test compounds were dissolved in acetonitrile, acetonitrile/methanol (1:1, v/v) or DMSO/acetonitrile (1:4, v/v). To a human liver microsomes solution adjusted with phosphate buffer (pH 7.4), the test compound solution was added to obtain a human liver microsomes reaction solution having the test compound concentration of 30 μM. To the human liver microsome reaction solution, NADPH production system was added, and the mixture was preincubated at 37° C. for 0 minutes or 60 minutes. After the preincubation, probe substrate testosterone was added, and testosterone metabolite 6β-hydroxytestosterone was analyzed by LC/MS/MS to evaluate CYP3A4 enzymatic activity.
# The enzyme activity (% of control) at each preincubation point was calculated from the following equation: % of control=[(activity of test compound addition group)/(activity of test compound non-addition group)]×100.
# The remaining activity (% remaining) after 60 minutes of preincubation was calculated from the following equation: Remaining activity (%)=[activity after 60 minutes (% of control60 min)]/[activity after 0 minutes (% of control0 min)]×100.
# human CaSR = target: T2, human CaSR (Homo sapiens, UniProt P41180); test: Human CaSR Antagonist Activity (CHO cells, NFAT-Luciferase reporter); type: cell-based; details: CHO, 2 h, 3.3 μm test compound; CaCl2 final 1.3 mM; 100% = reference carboxamide at 10 μM; read-out: Inhibition rate (%) at 3.3 μm
# T2 construct: expressed in transfected cells; host or cells: CHO cells
# T2 sequence (P41180 20-1078): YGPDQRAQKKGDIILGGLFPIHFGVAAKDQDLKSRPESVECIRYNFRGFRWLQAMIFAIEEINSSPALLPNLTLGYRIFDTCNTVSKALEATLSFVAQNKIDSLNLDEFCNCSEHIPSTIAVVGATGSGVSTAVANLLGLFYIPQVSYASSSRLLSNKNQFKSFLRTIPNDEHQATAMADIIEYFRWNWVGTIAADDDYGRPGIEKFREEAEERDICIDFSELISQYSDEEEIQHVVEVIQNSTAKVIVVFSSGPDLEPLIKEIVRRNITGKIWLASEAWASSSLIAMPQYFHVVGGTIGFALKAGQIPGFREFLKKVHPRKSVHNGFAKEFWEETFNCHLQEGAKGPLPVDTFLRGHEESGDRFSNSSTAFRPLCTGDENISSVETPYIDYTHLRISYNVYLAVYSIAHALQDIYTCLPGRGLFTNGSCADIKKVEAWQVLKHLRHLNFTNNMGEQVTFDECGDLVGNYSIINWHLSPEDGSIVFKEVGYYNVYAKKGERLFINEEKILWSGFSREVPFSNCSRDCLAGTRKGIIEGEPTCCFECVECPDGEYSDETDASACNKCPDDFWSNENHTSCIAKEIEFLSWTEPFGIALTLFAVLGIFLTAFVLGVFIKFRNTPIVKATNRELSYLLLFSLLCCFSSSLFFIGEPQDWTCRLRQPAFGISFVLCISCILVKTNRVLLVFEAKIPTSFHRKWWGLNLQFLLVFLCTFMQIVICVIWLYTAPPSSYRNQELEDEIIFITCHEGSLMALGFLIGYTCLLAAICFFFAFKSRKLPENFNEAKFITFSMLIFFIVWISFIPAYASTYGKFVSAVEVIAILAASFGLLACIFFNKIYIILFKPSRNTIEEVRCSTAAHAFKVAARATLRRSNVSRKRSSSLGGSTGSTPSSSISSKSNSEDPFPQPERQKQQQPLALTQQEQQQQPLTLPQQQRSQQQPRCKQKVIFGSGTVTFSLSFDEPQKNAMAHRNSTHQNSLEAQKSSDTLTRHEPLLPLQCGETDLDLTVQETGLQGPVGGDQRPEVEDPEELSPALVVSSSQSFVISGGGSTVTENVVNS
# Protocol: CaSR antagonist activity measurement was performed using Bright-Glo Luciferase assay system (Promega Corporation). CHO cells in which human CaSR and NFAT-Luciferase reporter gene were forcibly expressed were suspended in MEM alpha (Wako Pure Chemical Industries, Ltd.) containing 10% dialyzed serum (HyClone). The cells in suspension was seeded in 384-well white plate (Corning) at 10,000/20 μL/well, and cultured in an incubator of 37° C., 5% CO2 for one day. A diluent of Test compound was prepared with assay buffer (MEM alpha containing 10 mM HEPES (Life Technologies) and 10% dialysis serum). The diluent was added to the plate at 5 μL/well and allowed to stand at 37° C. for 10 minutes. Further, a diluent of 7.8 mM CaCl2 prepared with assay buffer (final concentration 1.3 mM) was added at 5 μl/well and allowed to stand in an incubator of 37° C., 5% CO2 for 2 hours. Bright-Glo reagents (Promega Corporation) were added at 10 μL/well, and the obtained mixture was stirred for 5 minutes, and then luminescence intensity was measured using Multi-label reader Envision (PerkinElmer, Inc.). The activity (%) of the test compound was calculated with the definitions in which the luminescence intensity when DMSO is added in place of the test compound is defined as 0% inhibition; and the luminescence intensity when (5R)—N-(1-ethyl-1-(4-ethylphenyl)propyl)-2,7,7-trimethyl-5-phenyl-4,5,6,7-tetrahydropyrazolo[1,5-a]Pyrimidine-3-carboxamide at final concentration of 10 μM is added is defined as 100% inhibition.
# [1] = test system: monocrotaline (MCT)-induced pulmonary hypertension rats; details: cited from earlier work
# [2] = test system: hypoxia-induced pulmonary hypertension (HPH) mice; details: cited from earlier work
# [3] = test system: aortic banding (TAC) models; details: cited from earlier work
# [4] = dosing after cardiac loading; cited from earlier work
Inducibility (%) (CYP3A),Remaining Activity (%) (CYP3A4),inhibition at 3.3 µM (human CaSR) [%],Compound,"cardiac hypertrophy, elevated right ventricular systolic pressure, fibrosis of cardiac muscle tissue, pulmonary vascular remodeling [1]","cardiac hypertrophy, elevated right ventricular systolic pressure, fibrosis of cardiac muscle tissue, pulmonary vascular remodeling [2]",cardiac hypertrophy [3],cardiac hypofunction [4]
2.3,78.1,97,"CC1(C)C[C@H](c2ccccc2)Nc2c(C(=O)N3CC4CC4(c4ccc(C(F)(F)F)cc4)C3)cnn21 (single isomer, unassigned) [Example 7]",,,,
1.2,97.7,99,"CC1(C)C[C@H](c2ccccc2)Nc2c(C(=O)N3CC4CC4(c4ccc(C(F)(F)F)c(Cl)c4)C3)cnn21 (single isomer, unassigned) [Example 11]",,,,
9.0,86.4,96,"CC1(C)C[C@H](c2ccccc2)Nc2c(C(=O)N3CC4CC4(c4cc(Cl)cc(C(F)(F)F)c4)C3)cnn21 (single isomer, unassigned) [Example 9]",,,,
16.7,81.8,101,"CC1(C)C[C@H](c2ccccc2)Nc2c(C(=O)N3CC4CC4(c4ccc(Cl)c(C(F)(F)F)c4)C3)cnn21 (single isomer, unassigned) [Example 13]",,,,

# More lines, now with the values behind:
Compound,Inducibility (%) (CYP3A),Remaining Activity (%) (CYP3A4),inhibition at 3.3 µM (human CaSR) [%],"cardiac hypertrophy, elevated right ventricular systolic pressure, fibrosis of cardiac muscle tissue, pulmonary vascular remodeling [1]","cardiac hypertrophy, elevated right ventricular systolic pressure, fibrosis of cardiac muscle tissue, pulmonary vascular remodeling [2]",cardiac hypertrophy [3],cardiac hypofunction [4]
"CC1(C)C[C@H](c2ccccc2)Nc2c(C(=O)N3CC4CC4(c4cc(Cl)cc(Cl)c4)C3)cnn21 (single isomer, unassigned) [Example 4]",10.7,87.0,100,,,,
CC(C)(Cc1ccc2ccccc2c1)NC[C@@H](O)COc1cccc(Cl)c1C#N [NPS-2143],,,,suppressed,suppressed,,
C[C@@H](N[C@H]1CCCC[C@@H]1NC(=O)c1ccc(Cl)cc1)c1cccc2ccccc12 [Calhex231],,,,,,improves cardiac hypertrophy,fails to improve cardiac hypofunction
